For nine compounds, IC50 results are on record in patent publication US20090306133A1, “New Acetyl Coenzyme A Carboxylase (ACC) Inhibitors And Uses In Treatments Of Obesity And Diabetes Mellitus - 087” (ASTRAZENECA AB, priority 2007, published 2009).

In test [1] the target is Human recombinant Acetyl-CoA Carboxylase 2 (ACC2) (Homo sapiens, UniProt O00763). Briefly: Assay Y: ACC2 inhibition, inorganic phosphate (Malachite Green). It is filed as biochemical. The settings on record: Assay Y: room temperature, 3 hr, 15 min preincubation. Summed up:
(§1)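 Enzyme preincubated with compound 15 min before substrate addition; reaction run 3 h, then phosphate detected with Malachite Green at 670 nm after 10 min at room temperature. Triplicate 10-point titrations; IC50 by non-linear four-parameter curve fitting.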

Test [2] deals with Human recombinant Acetyl-CoA Carboxylase 1 (ACC1) (Homo sapiens, UniProt Q13085). Briefly: Assay Y: ACC1 inhibition, inorganic phosphate (Malachite Green). It is filed as biochemical. The settings on record: Assay Y: room temperature, 3 hr, 15 min preincubation. A digest of the protocol: as §1

Sequence of Human recombinant Acetyl-CoA Carboxylase 2 (ACC2) (O00763 whole entry): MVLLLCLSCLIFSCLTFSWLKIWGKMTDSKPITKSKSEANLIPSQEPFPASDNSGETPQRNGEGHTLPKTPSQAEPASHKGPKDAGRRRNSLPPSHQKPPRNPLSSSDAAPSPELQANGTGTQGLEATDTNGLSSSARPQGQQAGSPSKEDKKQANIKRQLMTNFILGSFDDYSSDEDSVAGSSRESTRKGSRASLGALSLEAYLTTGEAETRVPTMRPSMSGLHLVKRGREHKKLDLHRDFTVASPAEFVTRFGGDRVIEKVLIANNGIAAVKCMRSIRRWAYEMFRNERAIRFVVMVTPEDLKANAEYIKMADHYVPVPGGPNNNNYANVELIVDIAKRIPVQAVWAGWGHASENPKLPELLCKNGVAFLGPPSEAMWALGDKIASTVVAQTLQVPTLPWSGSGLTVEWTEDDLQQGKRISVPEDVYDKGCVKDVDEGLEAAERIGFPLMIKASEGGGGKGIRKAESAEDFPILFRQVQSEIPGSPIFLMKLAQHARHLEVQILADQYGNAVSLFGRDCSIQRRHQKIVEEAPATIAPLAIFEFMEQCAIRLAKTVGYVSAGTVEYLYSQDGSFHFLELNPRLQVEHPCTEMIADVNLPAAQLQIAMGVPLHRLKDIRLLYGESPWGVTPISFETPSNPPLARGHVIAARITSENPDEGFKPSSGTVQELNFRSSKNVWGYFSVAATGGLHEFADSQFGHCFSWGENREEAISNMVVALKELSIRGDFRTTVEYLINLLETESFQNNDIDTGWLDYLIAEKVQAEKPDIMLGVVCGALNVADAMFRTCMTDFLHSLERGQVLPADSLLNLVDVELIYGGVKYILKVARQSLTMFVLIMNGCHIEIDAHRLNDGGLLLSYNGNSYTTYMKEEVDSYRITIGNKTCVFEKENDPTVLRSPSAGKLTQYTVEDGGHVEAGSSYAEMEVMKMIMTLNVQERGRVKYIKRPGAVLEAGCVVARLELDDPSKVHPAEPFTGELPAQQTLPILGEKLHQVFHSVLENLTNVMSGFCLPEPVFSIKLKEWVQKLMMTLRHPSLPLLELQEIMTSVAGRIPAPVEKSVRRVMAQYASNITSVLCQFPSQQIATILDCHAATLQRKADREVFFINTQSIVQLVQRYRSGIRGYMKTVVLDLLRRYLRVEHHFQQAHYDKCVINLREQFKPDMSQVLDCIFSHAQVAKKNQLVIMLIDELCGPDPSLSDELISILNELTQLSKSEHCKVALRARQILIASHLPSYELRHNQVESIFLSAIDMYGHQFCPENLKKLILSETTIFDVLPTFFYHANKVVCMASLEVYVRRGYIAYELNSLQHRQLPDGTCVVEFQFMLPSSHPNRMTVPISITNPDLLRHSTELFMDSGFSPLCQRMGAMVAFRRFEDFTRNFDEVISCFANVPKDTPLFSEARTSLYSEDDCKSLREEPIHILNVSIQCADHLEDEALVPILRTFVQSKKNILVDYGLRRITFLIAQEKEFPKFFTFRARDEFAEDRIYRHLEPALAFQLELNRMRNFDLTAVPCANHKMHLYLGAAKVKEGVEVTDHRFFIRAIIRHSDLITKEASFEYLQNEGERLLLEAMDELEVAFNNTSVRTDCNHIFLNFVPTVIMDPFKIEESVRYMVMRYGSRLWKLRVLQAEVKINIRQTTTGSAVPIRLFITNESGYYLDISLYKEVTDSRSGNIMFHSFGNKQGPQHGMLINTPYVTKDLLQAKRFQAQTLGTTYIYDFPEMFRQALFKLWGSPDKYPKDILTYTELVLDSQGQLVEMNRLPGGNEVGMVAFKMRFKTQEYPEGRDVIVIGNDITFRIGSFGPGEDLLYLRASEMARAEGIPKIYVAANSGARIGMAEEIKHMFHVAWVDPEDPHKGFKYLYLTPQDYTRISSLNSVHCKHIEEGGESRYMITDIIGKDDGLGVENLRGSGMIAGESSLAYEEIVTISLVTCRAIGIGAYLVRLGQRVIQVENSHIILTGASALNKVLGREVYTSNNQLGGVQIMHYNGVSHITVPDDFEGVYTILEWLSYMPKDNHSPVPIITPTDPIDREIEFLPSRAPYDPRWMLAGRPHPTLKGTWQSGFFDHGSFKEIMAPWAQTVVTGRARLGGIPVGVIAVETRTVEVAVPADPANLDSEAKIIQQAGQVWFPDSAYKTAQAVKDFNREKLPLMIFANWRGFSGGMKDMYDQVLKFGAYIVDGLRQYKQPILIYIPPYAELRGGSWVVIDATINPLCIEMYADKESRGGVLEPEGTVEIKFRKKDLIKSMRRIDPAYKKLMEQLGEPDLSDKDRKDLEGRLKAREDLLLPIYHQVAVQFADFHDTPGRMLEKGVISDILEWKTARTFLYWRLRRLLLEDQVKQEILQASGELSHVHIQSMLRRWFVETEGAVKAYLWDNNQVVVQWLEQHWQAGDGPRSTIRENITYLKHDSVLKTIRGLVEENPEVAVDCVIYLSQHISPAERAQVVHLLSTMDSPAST

Turning to `CNS(=O)(=O)c1ccc(-c2cc(C(=O)NC[C@H]3CC[C@H](CNC(=O)O[C@H]4CCOC4)CC3)c3ccccc3n2)cc1` [Example 137, (3S)-Tetrahydrofuran-3-yl{[trans-4-({[(2-{4-[(methylamino)sulfonyl]phenyl}quinolin-4-yl)carbonyl]amino}methyl)cyclohexyl]methyl}-carbamate], the half-maximal inhibitory concentration (IC50) worked out at 680 nM in test [1] and 3410 nM in test [2].

In the case of `NS(=O)(=O)c1ccc(-c2cc(C(=O)NC[C@H]3CC[C@H](CNC(=O)OC4CCOCC4)CC3)c3ccccc3n2)cc1` [Example 138, Tetrahydro-2H-pyran-4-yl[(trans-4-{[({2-[4-(aminosulfonyl)phenyl]-quinolin-4-yl}carbonyl)amino]-methyl}cyclohexyl)-methyl]carbamate], the values for the IC50 in test [1] and in test [2] were 710 nM and 3760 nM, respectively.

As to `NS(=O)(=O)c1ccc(-c2cc(C(=O)NC[C@H]3CC[C@H](CNC(=O)O[C@H]4CCOC4)CC3)c3ccccc3n2)cc1` [Example 139, (3S)-Tetrahydrofuran-3-yl[(trans-4-{[({2-[4-(aminosulfonyl)phenyl]-quinolin-4-yl}carbonyl)amino]-methyl}cyclohexyl)-methyl]carbamate], the IC50 turned out to be 530 nM in test [1] and 3340 nM in test [2].

Turning to `CN(C)S(=O)(=O)c1ccc(-c2cc(C(=O)NC[C@H]3CC[C@H](CNC(=O)OC4CCOCC4)CC3)c3ccccc3n2)cc1` [Example 140, Tetrahydro-2H-pyran-4-yl{[trans-4-({[(2-{4-[(dimethylamino)sulfonyl]phenyl}quinolin-4-yl)carbonyl]amino}-methyl)cyclohexyl]-methyl}carbamate], the values for the IC50 in test [1] and in test [2] were 960 nM and 3310 nM, respectively.

As to `CN(C)S(=O)(=O)c1ccc(-c2cc(C(=O)NC[C@H]3CC[C@H](CNC(=O)O[C@H]4CCOC4)CC3)c3ccccc3n2)cc1` [Example 141, (3S)-Tetrahydrofuran-3-yl{[trans-4-({[(2-{4-[(dimethylamino)sulfonyl]phenyl}quinolin-4-yl)carbonyl]amino}-methyl)cyclohexyl]-methyl}carbamate], the IC50 in test [1] is 920 nM; in test [2], 3900 nM.

On to `CC(=O)N1CCN(c2ccc(-c3cc(C(=O)NC[C@H]4CC[C@H](CNC(=O)OC(C)(C)C)CC4)c4ccccc4n3)cn2)CC1` [Example 142, tert-Butyl [(trans-4-{[({2-[6-(4-acetylpiperazin-1-yl)pyridin-3-yl]quinolin-4-yl}carbonyl)amino]methyl}cyclohexyl)methyl]carbamate], for which the half-inhibitory concentration (IC50) was 130 nM in test [1] and over 20000 nM in test [2].

As to `CC(C)(C)OC(=O)NC[C@H]1CC[C@H](CNC(=O)c2cc(-c3ccc(NCCO)nc3)nc3ccccc23)CC1` [Example 143, tert-Butyl{[trans-4-({[(2-{6-[(2-hydroxyethyl)amino]pyridin-3-yl}quinolin-4-yl)carbonyl]amino}methyl)cyclohexyl]methyl}carbamate], the concentration for half-maximal inhibition (IC50) in test [1] stood at 30 nM; in test [2], 360 nM.

As for `CC(C)(C)OC(=O)NC[C@H]1CC[C@H](CNC(=O)c2cc(-c3ccc(N4CCCC4)nc3)nc3ccccc23)CC1` [Example 144, tert-Butyl({trans-4-[({[2-(6-pyrrolidin-1-ylpyridin-3-yl)quinolin-4-yl]carbonyl}amino)methyl]cyclohexyl}methyl)carbamate], the half-maximal inhibitory concentration (IC50) amounted to 220 nM in test [1] and 4000 nM in test [2].

As for `CC(C)(C)OC(=O)NC[C@H]1CC[C@H](CNC(=O)c2cc(-c3ccc(N4CCOCC4)nc3)nc3ccccc23)CC1` [Example 145, tert-Butyl({trans-4-[({[2-(6-morpholin-4-ylpyridin-3-yl)-quinolin-4-yl]carbonyl}amino)-methyl]cyclohexyl}methyl)carbamate], the half-inhibitory concentration (IC50) amounted to 60 nM in test [1] and 280 nM in test [2].

The term IC50 denotes the midpoint of a concentration-inhibition curve.
